Measured values reported in paper PMC6337261, “Short Peptides with Uncleavable Peptide Bond Mimetics as Photoactivatable Caspase-3 Inhibitors” (Molecules, 2019).

Assays:
caspase-3 [1] = test: Competitive ABPP with bisulfite aldehyde quenching; assay type: biochemical
From the text: (§1) The presence of a ψ(CH2NH) peptide with benzophenone or UV irradiation alone was not sufficient for inhibition, but all needed to be present to block the caspase-3 active site (Figure 3G,H). We hypothesized that the active species is a peptide aldehyde, formed by oxidation of the ψ(CH2NH) moiety (see also discussion in Section 3). To support this hypothesis, we performed an experiment in which this aldehyde was trapped by sodium bisulfite, forming a sodium bisulfite adduct.
Compounds were incubated with or without irradiation (10 min) in PBS with or without 10 mM NaHSO3 and incubated for another 20 min before addition to caspase-3. After 30 min, ABP 13 was added (final concentration 1 μM) to label residual caspase activity. The samples were incubated for 30 min at room temperature, after which 1/3rd volume of 4× Laemmli buffer was added. Samples were processed in the same way as under Section 4.4.1.
(§2) Figure 3 Non-covalent inhibition of caspase-3 by compounds 9 and 10. (A) Fluorescent labeling of caspase-3 by ψ(CH2NH) peptides 9–10 and triazolo peptides 11–12. […] (B) Deconvoluted ESI-MS of caspase-3. (C) Deconvoluted ESI-MS of caspase-3 after incubation with covalent activity-based probe (ABP) 13. Note that the active site, located on the large subunit, is modified. (D) Deconvoluted ESI-MS of caspase-3 after irradiation in the presence of benzophenone ψ(CH2NH) 10a, not resulting in covalent modification. […] (F) Structures of ψ(CH2NH) peptides 14 and 15 without photocrosslinker. (G) UV irradiation of ψ(CH2NH) peptides 14 and 15 in the presence of benzophenone leads to inhibition of caspase-3, as monitored by competitive ABPP. […] Ac-DEVD-aldehyde (100 nM) was used as a control compound, whereas 9a and 10a (10 μM) were irradiated for 10 min and reacted with sodium bisulfite for an additional 20 min before 30 min incubation with caspase-3 and read-out with a fluorescent caspase ABP.

caspase-3 [2] = test: Gel-based competitive ABPP on recombinant caspase-3; assay type: biochemical; details: for Inhibition of caspase-3 activity (caspase ABP labeling): PBS with 1 mM DTT, fluorescent ABP read-out on gel; for Inhibition of caspase-3 (competitive ABPP, Figure S1): triazolo peptides at 100 μM
Procedure: (§3) To check whether our probes function as inhibitors, competitive ABPP [28] was performed. Recombinant caspase-3 was incubated with probes 9a–10c, 11a and 12a with or without irradiation at 365 nm, followed by labeling of residually active caspase-3 with the fluorescent, caspase-directed activity-based probe (ABP) SV149, a tetramethylrhodamine derivative of KMB-01 [29]. Caspase activity itself was not affected by UV irradiation, as shown by bands of equal intensity with and without UV light (Figure 2A). […] To confirm inhibition, we also performed substrate cleavage assays using the fluorogenic aminomethyl coumarin substrate Ac-DEVD-AMC. […] Inhibition of active caspases could also be achieved in an apoptotic cell lysate (Figure 2D).
(§4) Caspase-3, produced in E. coli and purified as described before, was reacted in PBS with 1 mM DTT. Samples were combined with the indicated probe and irradiated with a handheld UV lamp at 365 nm for 30 min at room temperature. For competition experiments with ‘pre-activation,’ the indicated probes were irradiated for 30 min prior to addition to caspase-3, and incubated for an additional 30 min. Next, ABP 13 was added (final concentration 1 μM) to label residual caspase-3 activity. The samples were incubated for 30 min at room temperature, after which 1/3rd volume of 4× Laemmli buffer was added. Samples were heated at 95 °C for 2 min and resolved by 15% SDS-PAGE. Gels were scanned using a Typhoon Trio+ fluorescent scanner with excitation at 532 nm and an emission filter of 580 nm. Gel images were processed with ImageJ (background subtraction with rolling ball radius of 50 pixels and automated contrast adjustment).
(§5) Figure 2 Inhibition of caspase-3. (A) Competitive activity-based protein profiling (ABPP) experiments using ψ(CH2NH) or triazolo peptide derivatives 9–12 with or without irradiation. Compounds 9a–12a were used at 10 μM final concentration, 9b, 9c, 10b and 10c at 100 μM. Inh = caspase inhibitor biotin-DEVD-AOMK, used at 100 nM concentration. (B) Representative progress curves of fluorescence produced by Ac-DEVD-AMC (50 μM) cleavage by caspase-3, irradiated with or without 10 μM of the indicated compounds. (C) Bar graph of residual caspase-3 activity of replicate experiments (n = 2) of those in (B). (D) Inhibition of executioner’s caspase-3 and -7 in lysates of HEK293 cells, treated with cytochrome c/dATP to induce apoptosis.

caspase-3 [3] = test: Competitive ABPP with UV pre-activation of the probes; assay type: biochemical; details: compound irradiated at 365 nm for 30 min, light source removed, then added to caspase-3 for 30 min; fluorescent ABP read-out
Procedure: (§6) Compounds were irradiated with UV light of 365 nm for 30 min and after removal of the light source added to caspase-3. Residual caspase activity was measured by using a fluorescent caspase ABP as in our previous experiments above.
as §4, §2

[4] = LC-MS analysis of probes before and after UV irradiation; assay type: physicochemical; details: irradiation at 365 nm, gradient 10% to 95% acetonitrile with 0.1% formic acid
Procedure: as §6
(§7) Although this points towards a cyclization rather than reaction with a water molecule, it is not clear whether it leads to a potent caspase inhibitor. […] Therefore, cyclization seemed improbable, as this would most likely lead to a shift in retention time. We hypothesized that irradiation could potentially lead to oxidation of a very small amount of the ψ(CH2NH) moiety with benzophenone as a photosensitizer, resulting in minute quantities of aldehydes that were not detected on LC-MS, but were sufficient for caspase-3 inhibition. Oxidation of secondary amines under influence of benzophenone has been reported before. […] Note that triazoles cannot undergo this transformation, further explaining their inactivity. The oxidation hypothesis was supported by an experiment in which ψ(CH2NH) peptides 14 and 15, not containing a benzophenone, were irradiated in the presence of 1 eq of spiked-in benzophenone (Figure 3G–I).
All materials were purchased from Sigma Aldrich GmbH (GmbH, Darmstadt, Germany), Carl Roth GmbH + Co. KG (Karlsruhe, Germany), Thermo Fischer Scientific Inc. (Dreieich, Germany), Rapp Polymere GmbH (Tübingen, Germany), Applichem GmbH (Darmstadt, Germany), VWR International GmbH (Darmstadt, Germany), Merck KGaA (Darmstadt, Germany), CreoSalus Inc. (Louisville, KY, USA), and Iris Biotech GmbH (Marktredwitz, Germany) and were used as received, unless otherwise noted. TLC was performed on pre-coated ALUGRAM SIL G plates with detection by a handheld UV lamp (254 nm) and subsequent staining with potassium permanganate, p-anisaldehyde, ninhydrin or cerium ammonium molybdate. LC-MS analysis was performed on a Thermo LCQ Fleet HPLC-MS/MS system using a gradient of 10% to 95% acetonitrile containing 0.1% formic acid. NMR spectra were recorded on a Bruker Avance DRX 400 spectrometer with tetramethylsilane as internal standard. High resolution ESI-FTMS was performed on a Thermo Scientific LTQ Orbitrap Velos Pro mass spectrometer.

caspase-3 [5] = test: Competitive ABPP with ψ(CH2NH) peptides irradiated in presence of spiked-in benzophenone; assay type: biochemical; details: for Inhibition of caspase-3 after irradiation with benzophenone: irradiated in presence of an equimolar amount (1 eq) of benzophenone
From the text: as §1, §7
Caspase-3, produced in E. coli and purified as described before, was reacted in PBS with 1 mM DTT. Samples were combined with the indicated probe and irradiated with a handheld UV lamp at 365 nm for 30 min at room temperature. […]
Figure 3 Non-covalent inhibition of caspase-3 by compounds 9 and 10. […] (G) UV irradiation of ψ(CH2NH) peptides 14 and 15 in the presence of benzophenone leads to inhibition of caspase-3, as monitored by competitive ABPP. […] Ac-DEVD-aldehyde (100 nM) was used as a control compound, whereas 9a and 10a (10 μM) were irradiated for 10 min and reacted with sodium bisulfite for an additional 20 min before 30 min incubation with caspase-3 and read-out with a fluorescent caspase ABP.

caspase-3 [6] = test: Fluorogenic substrate (Ac-DEVD-AMC) cleavage assay; assay type: biochemical; details: 10 μM compound, 2 nM caspase-3, 50 μM Ac-DEVD-AMC, HEPES pH 7.4 with 10 mM DTT, n = 2
Procedure: as §3
Purified caspase-3 (2 nM) was pre-activated by incubating in caspase reaction buffer (20 mm HEPES pH 7.4, 100 mM NaCl, 1 mM EDTA, 10% sucrose (w/v), 0.1% CHAPS (w/v), 10 mM DTT) for 15 min at 37 °C. Inhibitors 9a, 10a, and DMSO (control) were incubated with the caspase-3 at 10 μM final concentration. One set was irradiated with a handheld UV lamp at 365 nm for 30 min at room temperature whereas the control set was not irradiated. After 30 min, 99 μL of the sample was added to 1 μL of Ac-DEVD-AMC fluorogenic substrate (5 mM in dmso; 50 μM final concentration) in a black 96 well plate. The fluorescence intensity was read using an iD3 SpectraMax platereader (Molecular Devices; excitation wavelength: 340 nm; emission wavelength: 475 nm). The experiment was performed in duplicate. Activity was determined as the slope from the linear part of the progress curve by using GraphPad Prism.
as §5

[7] = 10 μM compound, irradiated at 365 nm for 30 min at room temperature
[8] = 100 μM compound, irradiated at 365 nm for 30 min at room temperature
[9] = 100 μM compound, non-irradiated

| Substance | Inhibition of caspase-3 activity (caspase ABP labeling) (caspase-3 [2]; [7]) | Inhibition of caspase-3 after UV pre-activation of compound (caspase-3 [3]) | Inhibition of caspase-3 activity (caspase ABP labeling) (caspase-3 [2]; [8]) | Change of probe upon UV irradiation (LC-MS before and after) [4] | other results |
| --- | --- | --- | --- | --- | --- |
| Ac-DEVD-aldehyde [Ac-DEVD peptide aldehyde, reference compound] |  |  |  |  | Inhibition of caspase-3 (caspase-3 [1]; 100 nM, without bisulfite, 30 min incubation with caspase-3, fluorescent ABP read-out): efficiently inhibits caspase-3 |
| Hexynoyl-photoLeu-Asp-Glu-Val-Aspψ(CH2NH)-Ala-NH2 [9b] |  | still inhibited | complete inhibition | loss of nitrogen | Inhibition of caspase-3 activity (caspase ABP labeling) (caspase-3 [2]; [9]): no decrease in caspase ABP labeling |
| Hexynoyl-Asp-Glu-Val-Aspψ(CH2NH)-Ala-NH2 [compound 15] |  |  |  |  | Inhibition of caspase-3 after irradiation with benzophenone (caspase-3 [5]): still led to inhibition |
| Acetyl-Asp-Glu-Val-Aspψ(CH2NH)-Ala-NH2 [compound 14] |  |  |  |  | Inhibition of caspase-3 after irradiation with benzophenone (caspase-3 [5]): still led to inhibition; Requirement for inhibition of caspase-3 (caspase-3 [5]; with or without benzophenone (BP) and UV irradiation): needs both BP and UV irradiation |
| Hexynoyl-p-azido-Phe-Asp-Glu-Val-Aspψ(CH2NH)-Ala-NH2 [9c] |  |  | did not show any inhibition |  |  |
| Hexynoyl-Bpa-Asp-Glu-Val-Aspψ(CH2NH)-Ala-NH2 [9a] | complete inhibition | still inhibited |  | did not show obvious changes | Inhibition of caspase-3 activity (caspase ABP labeling) (caspase-3 [2]; 10 μM compound, non-irradiated): no decrease in caspase ABP labeling; Inhibition of caspase-3 by irradiated sample exposed to sodium bisulfite (caspase-3 [1]; 10 μM, irradiated 10 min, reacted with 10 mM NaHSO3 for 20 min, then 30 min with caspase-3, fluorescent ABP read-out): lose their inhibitory capacity; Inhibition of Ac-DEVD-AMC cleavage by caspase-3 (caspase-3 [6]; irradiated at 365 nm for 30 min at room temperature): complete blockage of substrate processing; Inhibition of Ac-DEVD-AMC cleavage by caspase-3 (caspase-3 [6]; not irradiated): little to no inhibition |
| Hexynoyl-Asp-Glu-Val-Aspψ(CH2NH)-Ala-photoLeu-NH2 [10b] |  | still inhibited | complete inhibition | loss of nitrogen | Inhibition of caspase-3 activity (caspase ABP labeling) (caspase-3 [2]; [9]): no decrease in caspase ABP labeling |

More lines, main results first:

| Inhibition of caspase-3 activity (caspase ABP labeling) (caspase-3 [2]; [7]) | Inhibition of caspase-3 after UV pre-activation of compound (caspase-3 [3]) | Inhibition of caspase-3 activity (caspase ABP labeling) (caspase-3 [2]; [8]) | Change of probe upon UV irradiation (LC-MS before and after) [4] | Substance | other results |
| --- | --- | --- | --- | --- | --- |
| did not |  |  |  | Hexynoyl-Bpa-Asp-Glu-Val-Asp(triazolo)-Ala-NH2 [11a] | Inhibition of caspase-3 (competitive ABPP, Figure S1) (caspase-3 [2]): not show efficient inhibition |
| some inhibition |  |  |  | Hexynoyl-Asp-Glu-Val-Asp(triazolo)-Ala-Bpa-Gly-NH2 [12a] | Inhibition of caspase-3 (competitive ABPP, Figure S1) (caspase-3 [2]): inhibition that is nearly quantitative |
|  |  | did not show any inhibition |  | Hexynoyl-Asp-Glu-Val-Aspψ(CH2NH)-Ala-p-azido-Phe-NH2 [10c] |  |
